Assay results: the supplement of paper PMC10307832

Columns and labels:
Assay in all cases: relative viability (nuclei count vs DMSO), 5 days (fraction); higher = more cells survive
GSK126 = compound: CC[C@H](C)N1C=C(C2=C(C=C(C=C21)C3=CN=C(C=C3)N4CCNCC4)C(=O)NCC5=C(C=C(NC5=O)C)C)C [GSK126]
Outline: (§1)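 On vehicle-anchored 1536-well plates, lung cancer cell lines held overnight at 37 °C were pinned with five library-drug doses (not always all listed) spaced by √10. With no medium change over 5 days, they were then fixed, permeabilised and Hoechst-stained in one step and imaged at 4×. MetaXpress counted nuclei, and viability is the median across plates of treated-well over vehicle-well nuclei. Acceptance needed control CV below 25% and at least one doubling.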

Carboplatin = compound: C1CC(C1)(C(=O)O)C(=O)O.[NH2-].[NH2-].[Pt+2] [Carboplatin]
Outline: as §1

MLN4924 = compound: NS(=O)(=O)OC[C@@H]1C[C@@H](n2ccc3c(N[C@H]4CCc5ccccc54)ncnc32)C[C@@H]1O [MLN4924]
Outline: as §1

Carboplatin + Foretinib = compound: C1CC(C1)(C(=O)O)C(=O)O.[NH2-].[NH2-].[Pt+2] [Carboplatin] + COc1cc2c(Oc3ccc(NC(=O)C4(C(=O)Nc5ccc(F)cc5)CC4)cc3F)ccnc2cc1OCCCN1CCOCC1 [Foretinib] (partner 0.25 µM)
Outline: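 Relative viability is defined as nuclei in treated wells over nuclei in vehicle wells. Duplicate plates were run and medians reported. Lung cancer cell lines in 1536-well plates were dosed by pin tool one day after seeding, with one drug or with a fixed anchor-drug dose plus five library-drug doses (not always all listed) in √10 steps, and nuclei were counted after 5 days.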

| Cell Line | relative viability (GSK126; 0.08 µM) | relative viability (GSK126; 0.253 µM) | relative viability (GSK126; 0.8 µM) | relative viability (GSK126; 2.53 µM) | relative viability (GSK126; 8 µM) | relative viability (Carboplatin; 0.08 µM) | relative viability (Carboplatin; 0.253 µM) | relative viability (Carboplatin; 0.8 µM) | relative viability (Carboplatin; 2.53 µM) | relative viability (Carboplatin; 8 µM) | relative viability (MLN4924; 0.04 µM) | relative viability (MLN4924; 0.1265 µM) | relative viability (MLN4924; 0.4 µM) | relative viability (MLN4924; 1.265 µM) | relative viability (MLN4924; 4 µM) | relative viability (Carboplatin + Foretinib; first compound 0.08 µM) | relative viability (Carboplatin + Foretinib; first compound 0.253 µM) | relative viability (Carboplatin + Foretinib; first compound 0.8 µM) | relative viability (Carboplatin + Foretinib; first compound 2.53 µM) | relative viability (Carboplatin + Foretinib; first compound 8 µM) |
| --- | --- | --- | --- | --- | --- | --- | --- | --- | --- | --- | --- | --- | --- | --- | --- | --- | --- | --- | --- | --- |
| NCI-H322M | 0.925 | 0.959 | 0.992 | 1.09 | 0.968 | 1.1 | 0.918 | 0.984 | 0.969 | 0.931 | 1.26 | 1.3 | 0.684 | 0.273 | 0.35 | 1.12 | 0.943 | 0.895 | 0.861 | 0.77 |
| IA-LM | 1.04 | 0.906 | 0.925 | 0.997 | 0.894 | 1.08 | 1.06 | 0.927 | 0.835 | 0.778 | 0.573 | 0.29 | 0.14 | 0.0648 | 0.0764 | 1.25 | 1.06 | 1.21 | 1.19 | 1 |
| NCI-H727 | 1.02 | 0.946 | 0.849 | 0.997 | 1.02 | 1.11 | 0.841 | 0.94 | 0.83 | 0.671 | 0.844 | 0.587 | 0.5 | 0.307 | 0.326 | 1.1 | 0.967 | 0.9 | 0.792 | 0.637 |
| NCI-H1944 | 1.1 | 0.902 | 1 | 0.998 | 1.13 | 0.887 | 0.967 | 0.922 | 0.981 | 0.644 | 0.975 | 0.788 | 0.583 | 0.176 | 0.176 | 0.971 | 0.855 | 0.854 | 0.789 | 0.601 |
| BEN | 1.1 | 0.997 | 0.914 | 1.04 | 0.924 | 1.11 | 0.969 | 0.987 | 0.904 | 0.893 | 0.729 | 0.627 | 0.408 | 0.197 | 0.219 | 0.778 | 0.654 | 0.69 | 0.658 | 0.589 |
| CAL-12T | 1.09 | 0.986 | 0.973 | 1.07 | 1.17 | 1.02 | 1.04 | 1 | 1.07 | 0.877 | 0.854 | 0.82 | 0.485 | 0.344 | 0.198 | 1.1 | 1.06 | 1.2 | 1.02 | 1.07 |
| EBC-1 | 1.03 | 0.966 | 0.969 | 0.978 | 0.947 | 1.07 | 0.987 | 0.97 | 0.969 | 0.851 | 0.855 | 0.703 | 0.283 | 0.104 | 0.131 | 0.0979 | 0.108 | 0.108 | 0.0821 | 0.101 |
| NCI-H2170 | 1.03 | 1.05 | 0.881 | 1.03 | 0.932 | 0.957 | 0.944 | 0.972 | 0.964 | 0.864 | 1 | 0.92 | 0.406 | 0.164 | 0.197 | 0.994 | 0.527 | 1.02 | 0.942 | 0.468 |
| SW 900 | 0.844 | 0.853 | 0.788 | 0.896 | 0.892 | 0.808 | 0.774 | 0.822 | 0.837 | 0.68 | 0.68 | 0.825 | 0.384 | 0.21 | 0.184 | 1.08 | 0.789 | 0.677 | 0.769 | 0.682 |
| NCI-H2085 | 1.06 | 1.05 | 0.958 | 0.943 | 1.02 | 1.08 | 1 | 0.981 | 1.01 | 0.905 | 0.978 | 1.01 | 1.12 | 0.772 | 0.541 | 1.05 | 0.933 | 1.1 | 0.899 | 0.691 |
| LCLC-103H | 1.02 | 1.03 | 1.01 | 0.994 | 1.01 | 1.03 | 0.989 | 0.992 | 1.07 | 0.834 | 0.949 | 1.02 | 0.912 | 0.282 | 0.312 | 0.752 | 0.83 | 0.806 | 0.703 | 0.632 |
| NCI-H1703 | 1.21 | 0.834 | 0.96 | 1.04 | 1.13 | 1.27 | 1.1 | 0.998 | 1.05 | 1.01 | 0.43 | 0.314 | 0.255 | 0.136 | 0.141 | 0.446 | 0.397 | 0.34 | 0.403 | 0.37 |
| EKVX | 1.02 | 1.08 | 1.02 | 1.03 | 0.982 | 1.01 | 0.984 | 0.99 | 1.05 | 0.855 | 0.933 | 0.914 | 0.685 | 0.238 | 0.209 | 0.903 | 0.893 |  | 0.749 | 0.747 |
| 201T | 1.03 | 1.01 | 1.02 | 1.06 | 1.07 | 1.01 | 0.994 | 1.03 | 0.971 | 0.9 | 1.09 | 0.989 | 0.73 | 0.375 | 0.307 | 1.28 | 1.05 | 0.917 | 0.867 | 0.618 |
| NCI-H2023 | 1.13 | 1.04 | 1.02 | 1.22 | 1.09 | 1.1 | 1.08 | 0.959 | 0.572 | 0.249 | 0.986 | 0.739 | 0.207 | 0.0741 | 0.0639 | 0.859 | 0.926 | 0.897 | 0.695 | 0.282 |
| NCI-H1395 | 1.03 | 0.926 | 0.893 | 1 | 0.957 | 1.16 | 0.885 | 0.833 | 0.749 | 0.766 | 0.868 | 0.951 | 0.618 | 0.354 | 0.381 | 1.03 | 1.03 | 0.805 | 0.709 | 0.726 |
